Data on 2 molecules can be found in patent US20240043470A1, “MACROCYCLIC COMPOUNDS AS PROTEASOME INHIBITORS” (CORNELL UNIVERSITY, priority 2017, published 2024).

One data set addresses β5i of hu i-20S (Homo sapiens (Human), UniProt P20618+P28062). In words: IC50 determination against β5i of human immunoproteasome (Ac-ANW-AMC hydrolysis).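 Also: enzyme activity taken as the initial reaction velocity per well, with SDS added to activate the proteasome.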 The following applies: β5i, 0.4 nM i-20S, 15 μM Ac-ANW-AMC. The format is biochemical.
Data set [1] has as its system IL-6 in LPS-stimulated human macrophages. The data set is described as follows: Inhibition of IL-6 in LPS-stimulated human macrophages (Q-PCR and ELISA). It counts as cell-based. The following applies: LPS 50 ng/ml; 6 h gene expression (FIG. 1A), 24 h ELISA (FIG. 1B); compound added 15 minutes before LPS. On the procedure: Monocytes were isolated from the blood of 2 healthy donors using CD14 magnetic beads and cultured with 20 ng/ml of MCSF for 24 hours to induce the differentiation into macrophages. 200,000 cells/wells in 96 wells plate were incubated with LPS (50 ng/ml) for 6 hours for RNA isolation and gene expression analysis (FIG. 1A) and 24 hours for ELISA (FIG. 1B). The proteasome inhibitor 4-13 used at the indicated concentration was added 15 minutes before adding LPS. At 6 hours, RNA were prepared using Qiagen RNA plus kit and cDNA were synthetized using the Thermofisher cDNA synthesis kit (FIG. 1A). Q-PCR was performed in duplicate and expression levels normalized to the level of the housekeeping gene ubiquitin. At 24 hours, supernatants were collected and IL-6 production quantified by ELISA (FIG. 1B).
For orientation: An ELISA detects its analyte on a solid surface through an enzyme-linked reagent.

A further data set deals with β5c of hu c-20S (Homo sapiens (Human), UniProt P20618+P28074). In words: IC50 determination against β5c of human constitutive proteasome (suc-LLVY-AMC hydrolysis).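 Also: IC50 obtained by fitting initial reaction velocities to a dose-dependent inhibition model, with SDS present as proteasome activator.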 It counts as biochemical. The following applies: 0.2 nM c-20S, 25 μM suc-LLVY-AMC.
For data set [2] the following is noted: amide bond; 16-membered ring; EDCI/HOBt/DIEA; DMF; 15.8 mM; 20.0 °C.

For orientation: IC50 means the point on the concentration scale where inhibition reaches its midpoint. For the molecule `O=C1CCCCCCCCCC[C@@H](C(=O)NCc2ccccc2F)NC(=O)[C@H](CC(=O)N2CCCC2C2CC2)N1` (stereo partly shown) [Compound 4-13], the IC50 on β5i of hu i-20S came to 0.018 µM; against β5c of hu c-20S, 0.274 µM. Moreover, the “Inhibition of IL-6 in LPS-stimulated human macrophages” value in data set [1] is recorded as “inhibition of IL-6”.

In data set [2], “(5S,8S,11S)-7,10-Dioxo-11-(2-oxopyrrolidin-1-yl)-8-(2-(piperidin-1-yl)ethyl)-N-(2,2,2-trifluoroethyl)-2-oxa-6,9-diaza-1,3(1,3)-dibenzenacyclododecaphane-5-carboxamide” yielded a ring closure, yield after HPLC of 24.2%.
